The values below come from patent US7595395B2, “Gabaergic agents to treat memory deficits” (priority 2005, dated 2009).

Structures are written as SMILES. Read-outs that look alike come from different tables or passages of the source. Where only a bound is given, the exact number is not on record here.

The subject of assay [1] is alcohol preferring rats (P) and high alcohol drinking rats (HAD). Conditions: cited from earlier work.
The target of another assay is GABAA/α1 receptors (Homo sapiens, UniProt P14867+P18507). As to conditions: Huang et al. 2000; cited from earlier work.
GABAA/α1 receptors, sequence (P28472 26-473 partner, one chain of several): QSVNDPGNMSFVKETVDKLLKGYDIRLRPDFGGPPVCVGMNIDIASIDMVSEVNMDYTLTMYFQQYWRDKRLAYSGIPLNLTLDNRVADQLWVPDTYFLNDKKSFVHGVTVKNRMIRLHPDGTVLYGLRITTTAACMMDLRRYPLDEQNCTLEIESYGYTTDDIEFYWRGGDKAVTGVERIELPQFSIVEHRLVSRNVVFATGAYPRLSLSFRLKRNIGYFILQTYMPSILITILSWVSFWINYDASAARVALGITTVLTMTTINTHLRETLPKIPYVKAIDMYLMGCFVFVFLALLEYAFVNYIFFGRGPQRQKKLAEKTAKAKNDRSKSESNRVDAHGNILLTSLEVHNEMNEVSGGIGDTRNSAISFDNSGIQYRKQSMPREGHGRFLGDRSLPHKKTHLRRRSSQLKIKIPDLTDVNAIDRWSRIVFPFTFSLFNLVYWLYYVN
Assay [2] addresses T1, α2β3γ2 benzodiazepine receptor GABA(A) isoform (UniProt P18507+P47869).
T1 sequence (P18507 1-475): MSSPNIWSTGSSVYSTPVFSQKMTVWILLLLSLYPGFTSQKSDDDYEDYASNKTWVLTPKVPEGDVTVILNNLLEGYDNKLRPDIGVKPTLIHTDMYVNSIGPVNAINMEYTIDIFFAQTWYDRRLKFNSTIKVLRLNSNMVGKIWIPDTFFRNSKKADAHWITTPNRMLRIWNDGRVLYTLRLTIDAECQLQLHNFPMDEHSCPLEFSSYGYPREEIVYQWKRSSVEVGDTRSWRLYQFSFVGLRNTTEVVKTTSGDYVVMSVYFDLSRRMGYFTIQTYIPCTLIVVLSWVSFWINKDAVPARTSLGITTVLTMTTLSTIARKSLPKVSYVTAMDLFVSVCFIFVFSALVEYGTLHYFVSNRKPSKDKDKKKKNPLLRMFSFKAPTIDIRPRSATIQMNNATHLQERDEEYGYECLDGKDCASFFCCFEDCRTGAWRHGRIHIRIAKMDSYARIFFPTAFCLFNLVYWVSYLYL
T1 sequence (P47869 1-451): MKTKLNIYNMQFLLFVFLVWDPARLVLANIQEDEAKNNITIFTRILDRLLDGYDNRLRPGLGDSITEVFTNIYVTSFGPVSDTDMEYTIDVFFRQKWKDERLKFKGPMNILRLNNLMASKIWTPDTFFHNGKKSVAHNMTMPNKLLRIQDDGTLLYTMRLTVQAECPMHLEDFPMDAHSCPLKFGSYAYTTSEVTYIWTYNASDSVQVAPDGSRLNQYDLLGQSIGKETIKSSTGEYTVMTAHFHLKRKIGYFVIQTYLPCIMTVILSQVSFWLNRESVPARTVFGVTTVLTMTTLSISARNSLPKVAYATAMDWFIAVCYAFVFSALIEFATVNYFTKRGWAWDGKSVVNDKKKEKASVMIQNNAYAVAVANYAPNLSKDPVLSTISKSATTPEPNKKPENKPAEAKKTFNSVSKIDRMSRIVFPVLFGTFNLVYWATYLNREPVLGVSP
As to the kind of experiment: Radioligand competition binding, α2β3γ2 BzR/GABA(A) isoform. More on the design: species or system human and rat. As to conditions: means of two determinations, read-out: Ki α2. On the procedure:
(§1) The affinity of all ligands at the 6 major recombinant GABAA/BzR subtypes was measured by competition for [^3H]Ro15-1788 binding to HEK-T cells expressing both human and rat GABAA/Bz receptors of composition α1β2γ2 (α1), α2β2γ2 (α2), α3β2γ2 (α3), α4β2γ2 (α4), α5β2γ2 (α5) and α6β2γ2 (α6). It is well known that the β2 and β3 subunits can be interchanged with no effect on Bz ligand affinity or efficacy. […] These studies are similar to those performed in the laboratory of Bryan Roth who has already expressed the receptors employing the work of Kucken et. al. and Gray et. al.
(§2) In brief, for membrane preparations, the cells were scraped on to the ice and diluted into 5 mL of phosphate buffered saline (pH=7.40) and cells pelleted by centrifugation for 5 min. at 4° C. The pellet was resuspended in 1 mL of 50 mM Tris-acetate buffer (pH 7.4) and centrifuged at 18,000 g for 20 min. […] Each pellet were diluted to 6 mL and then 100 μL of membranes were incubated with approximately 1 nM final concentration of [^3H]Ro 15-1788 in a total volume of 250 μL together with serial dilutions of test compound for 90 min. on ice. The membranes were harvested in polyethyleneimine-pretreated Whatman GF/C filters and after drying and addition of scintillation cocktail, counted in a scintillation counter. The cpm retained on the filters was plotted against log concentration (M) and fitted to one site competition equation to obtain the Ki using Graphpad Prizm (V4.0) using the Cheng-Prusoff approximation.
Background: Loss of bound radioactivity is the signal in a displacement assay; it reports binding, not function.

Assay [3] concerns the target T2, α1β3γ2 benzodiazepine receptor GABA(A) isoform (UniProt P14867+P18507).
T2 sequence (P14867 1-456): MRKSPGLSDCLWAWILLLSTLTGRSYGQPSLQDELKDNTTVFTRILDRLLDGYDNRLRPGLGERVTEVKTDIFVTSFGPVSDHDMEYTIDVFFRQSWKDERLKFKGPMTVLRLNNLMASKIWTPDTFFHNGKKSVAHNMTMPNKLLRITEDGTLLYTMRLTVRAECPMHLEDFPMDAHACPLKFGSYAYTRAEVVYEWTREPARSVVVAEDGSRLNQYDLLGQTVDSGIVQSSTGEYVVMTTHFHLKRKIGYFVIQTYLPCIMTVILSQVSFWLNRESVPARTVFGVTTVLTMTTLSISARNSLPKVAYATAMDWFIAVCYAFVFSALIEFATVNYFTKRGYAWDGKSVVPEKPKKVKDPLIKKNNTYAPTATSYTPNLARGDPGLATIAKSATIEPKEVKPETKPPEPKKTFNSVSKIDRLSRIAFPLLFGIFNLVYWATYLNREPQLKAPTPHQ
T2 sequence (P18507 1-475): T1 sequence (P18507 1-475)
Description: Radioligand competition binding, α1β3γ2 BzR/GABA(A) isoform. Details: Ki α1; means of two determinations; Ki α1; α1; species or system human and rat. As to conditions: means of two determinations, read-out: Ki α1. On the procedure: as §1, §2

Assay [4] has as its target T3, α5β3γ2 benzodiazepine receptor GABA(A) isoform (UniProt P18507+P31644).
T3 sequence (P18507 1-475): T1 sequence (P18507 1-475)
T3 sequence (P31644 1-462): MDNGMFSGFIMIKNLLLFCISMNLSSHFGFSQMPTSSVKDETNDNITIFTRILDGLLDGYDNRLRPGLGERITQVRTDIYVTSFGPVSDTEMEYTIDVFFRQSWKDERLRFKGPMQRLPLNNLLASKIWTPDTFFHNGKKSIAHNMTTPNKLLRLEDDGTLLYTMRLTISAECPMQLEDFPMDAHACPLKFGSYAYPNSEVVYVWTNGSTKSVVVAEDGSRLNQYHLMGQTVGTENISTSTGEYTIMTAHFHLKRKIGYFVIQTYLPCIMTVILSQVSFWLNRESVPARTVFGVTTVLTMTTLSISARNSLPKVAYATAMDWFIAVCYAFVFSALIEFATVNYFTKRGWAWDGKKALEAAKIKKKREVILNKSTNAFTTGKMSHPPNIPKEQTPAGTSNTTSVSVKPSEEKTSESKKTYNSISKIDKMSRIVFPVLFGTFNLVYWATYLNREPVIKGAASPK
Description: Radioligand competition binding, α5β3γ2 BzR/GABA(A) isoform. Details: Ki α5; means of two determinations; Ki α5; α5; other: text; species or system human and rat.

Assay [5] has as its target α6β3γ2 benzodiazepine receptor GABA(A) isoform (UniProt P18507+Q16445). Description: Radioligand competition binding, α6β3γ2 BzR/GABA(A) isoform. More on the design: species or system human and rat. Conditions: means of two determinations, read-out: Ki α6. On the procedure: as §1, §2
For assay [6], the target named is T4, α3β3γ2 benzodiazepine receptor GABA(A) isoform (UniProt P18507+P34903).
T4 sequence (P18507 1-475): T1 sequence (P18507 1-475)
T4 sequence (P34903 1-492): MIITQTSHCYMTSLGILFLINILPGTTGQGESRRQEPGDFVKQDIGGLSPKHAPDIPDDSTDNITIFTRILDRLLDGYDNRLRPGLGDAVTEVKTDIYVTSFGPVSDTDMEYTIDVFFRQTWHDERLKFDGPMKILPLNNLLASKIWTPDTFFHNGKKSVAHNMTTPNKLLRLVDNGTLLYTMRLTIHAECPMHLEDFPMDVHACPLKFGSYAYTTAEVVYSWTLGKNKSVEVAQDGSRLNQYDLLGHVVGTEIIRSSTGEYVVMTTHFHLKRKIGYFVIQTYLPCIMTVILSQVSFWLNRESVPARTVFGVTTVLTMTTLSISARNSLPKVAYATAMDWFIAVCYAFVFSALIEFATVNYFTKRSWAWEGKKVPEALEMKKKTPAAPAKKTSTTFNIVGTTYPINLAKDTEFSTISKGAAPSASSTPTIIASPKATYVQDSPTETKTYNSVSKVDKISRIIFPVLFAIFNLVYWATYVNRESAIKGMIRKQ
Description: Radioligand competition binding, α3β3γ2 BzR/GABA(A) isoform. Details: species or system human and rat. As to conditions: means of two determinations, read-out: Ki α3. The method, then:
as §1, §2

Setting [7] is: read-out: Ki α5; Table I; means of two determinations.
[8] abbreviates: Table 2; means of two determinations; read-out: Ki α5.
Setting [9] is: read-out: Ki α5; Table 2; means of two determinations.

As for `CC(C)(C)OC(=O)c1cc2c(cn1)[nH]c1ccccc12` [BCCt, β-carboline-3-carboxylate-tbutyl ester], the “alcohol self administration (in words)” value in assay [1] (P and HAD rats, June et al. 2003, Foster et al. 2004) was “potently reduced alcohol self administration”. In addition, the “anxiolytic activity (in words)” value in assay [1] (P and HAD rats) is recorded as “exhibits anxiolytic activity”. Also, in assay [1] (P rats and HAD rats), the “sedative-hypnotic effects of alcohol (in words)” value is “antagonized the sedative-hypnotic effects of alcohol”. Besides, at GABAA/α1 receptors, the “selectivity for α1 over other BzR subtypes” value is listed as 20 fold.
As usually defined, the Ki is the dissociation constant of the complex between target and ligand, obtained from inhibition or displacement. For the molecule `CN1Cc2c(CCl)ncn2-c2ccc(Cl)cc2C1=O` [Ligand 12b], the inhibitory constant (Ki) in assay [2] (Table I) is > 300 nM; in assay [3] (Table I), > 300 nM; in assay [4] (setting [7]) it was 28.5 nM; in assay [5] (Table I), > 300 nM; in assay [6] (Table I) it was > 300 nM.
`CCOCc1ncn2c1CN(C)C(=O)c1cc(Cl)ccc1-2` [Ligand 12c]: the Ki in assay [2] (Table I) was > 300 nM; in assay [3] (Table I) it was > 300 nM; in assay [4] (setting [7]), 82.7 nM; in assay [5] (Table I) it was > 300 nM; in assay [6] (Table I), > 300 nM.
`C#CC#Cc1ccc2c(c1)C(=O)N1CCC[C@H]1c1c(C(=O)OCC)ncn1-2` [Ligand 14]: the Ki in assay [4] (setting [7]) was determined as 64 nM.
In the case of `CCOC(=O)c1ncoc1-c1ncn2c1[C@@H]1CCN1C(=O)c1cc(Br)ccc1-2` [RY062], the inhibitory constant (Ki) was > 1000 nM in assay [2] (Table 2); > 1000 nM in assay [3] (Table 2); 172 nM in assay [4] (setting [8]); > 2000 nM in assay [5] (Table 2); > 500 nM in assay [6] (Table 2).
Consider `CCOC(=O)c1ncoc1-c1ncn2c1[C@@H]1CCN1C(=O)c1cc(C#C[Si](C)(C)C)ccc1-2` [RY068], for which the inhibition constant (Ki) is 877 nM in assay [2] (Table 2); > 500 nM in assay [3] (Table 2); 37 nM in assay [4] (setting [9]); > 1000 nM in assay [5] (Table 2); 496 nM in assay [6] (Table 2).
In the same order, the values of `C#Cc1ccc2c(c1)C(=O)N1CC[C@H]1c1c(-c3ocnc3C(=O)OCC)ncn1-2` [RY069] are 622 nM, 692 nM, 19 nM, > 1000 nM and 506 nM.
Take `C#Cc1ccc2c(c1)C(=O)N1CC[C@@H]1c1c(-c3nc(C)no3)ncn1-2` [RY-I-29]: the Ki in assay [2] (Table 2) is > 1000 nM; in assay [2] (Table I), > 1000 nM; in assay [3] (Table 2), > 1000 nM; in assay [3] (Table I), > 1000 nM; in assay [4] (setting [8]) it was 157 nM; in assay [4] (Table I; means of two determinations; read-out: Ki α5) it was 157 nM. The Ki in assay [5] (Table 2), in assay [5] (Table I), in assay [6] (Table 2) and in assay [6] (Table I) was > 1000 nM throughout.
